Consider 68 compounds from article PMC7539012, “Hyperphosphorylated tau aggregation and cytotoxicity modulators screen identified prescription drugs linked to Alzheimer's disease and cognitive functions” (Scientific Reports, 2020).

Counter-ions that a name gives are not always drawn. Like-named read-outs stand apart in the source and are kept apart here.

The test system of this test is T1, 1N4R p-tau.
T1 construct: made in house; host or cells: E. coli (PIMAX system)
As to the kind of experiment: p-tau aggregation modulator screen of 1280-compound library (ThS fluorescence net change over 16 h).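 Also: 30 µM compound with 6 µM p-tau over 16 h.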 The format is biochemical.

[1] abbreviates: 1280-compound library screen, ThS fluorescence net change over 16 h.
Setting [2] is: p-tau aggregation modulator screen of the compound library, ThS fluorescence net change.
[3] abbreviates: p-tau aggregation modulator screen of 1280-compound library, ThS fluorescence net change.
Where [4] appears, read: 1280-compound library screen, […].
[5] abbreviates: library screen, ThS fluorescence net change over 16 h with p-tau.
The mark [6] stands for this setting: p-tau aggregation modulator screen of 1280-compound library, […].

`CC(=O)OCC(=O)[C@@]1(O)CC[C@H]2[C@@H]3CCC4=CC(=O)C=C[C@]4(C)[C@@]3(F)[C@@H](O)C[C@@]21C` [Isoflupredone acetate] yielded a ThS net change under setting [1] of 388.

`CCC(C)(C)c1ccc(CC(C)CN2C[C@@H](C)O[C@@H](C)C2)cc1` (some centres unmarked) [Amorolfine hydrochloride]: the ThS net change is given as 413.

Turning to `CCc1nn(CCCN2CCN(c3cccc(Cl)c3)CC2)c(=O)n1CCOc1ccccc1` [Nefazodone HCl], the ThS net change under setting [2] was found to be 454.

For `CCCN(CCC)C(=O)C(CCC(=O)O)NC(=O)c1ccccc1` (centres unmarked) [Proglumide], under setting [3], the ThS net change is recorded as 331.

`NCc1ccccc1CC(=O)N[C@@H]1C(=O)N2C(C(=O)O)=C(CSc3nnnn3CC(=O)O)CS[C@H]12` [Ceforanide] gave a ThS net change under setting [3] of 351.

`CCc1cc(C(N)=S)ccn1` [Ethionamide] showed a ThS net change under setting [3] of 360.

The compound `C=CC[N@@+]12CC[C@]34c5ccccc5N5/C=C6\C7N(/C=C(\C53)[C@@H](C[C@@H]41)/C(=C/CO)C2)c1ccccc1[C@@]71CC[N@@+]2(CC=C)C/C(=C\CO)[C@@H]6C[C@@H]12.[Cl-].[Cl-]` (some centres unmarked) [Alcuronium chloride] had a ThS net change of 460.

In turn, `CC(C(=O)O)c1ccc(C(=O)c2cccs2)cc1` (centres unmarked) [Suprofen] yielded a ThS net change under setting [1] of 391.

`CC(=O)Nc1c(I)c(NC(C)=O)c(I)c(C(=O)O)c1I.O.O` [Diatrizoic acid dihydrate] registered a ThS net change under setting [4] of 407.

Under setting [3], `Cc1nnc(NS(=O)(=O)c2ccc(N)cc2)s1` [Sulfamethizole] displayed a ThS net change of 365.

Take `O=c1[nH]c2ccccc2n1C1CCN(CCCC(c2ccc(F)cc2)c2ccc(F)cc2)CC1` [Pimozide]: the ThS net change under setting [5] worked out at 274.

In the case of `O=C(NCCN1CCOCC1)c1ccc(Cl)cc1` [Moclobemide], under setting [1], the ThS net change came out at 393.

Under setting [2], `COc1nc(C)nc(Cl)c1N=C1NCCN1` [Moxonidine] displayed a ThS net change of 433.

In turn, `NC(=O)C[S+]([O-])C(c1ccccc1)c1ccccc1` (centres unmarked) [Modafinil] registered a ThS net change of 413.

Under setting [1], `CCCCNc1ccc(C(=O)OCCOCCOCCOCCOCCOCCOCCOCCOCCOC)cc1` [Benzonatate] had a ThS net change of 398.

In turn, Beta-Escin came in with a ThS net change of 471.

`Cc1cc(=O)n(-c2ccccc2)n1C` [Antipyrine]: the ThS net change under setting [6] was 359.

Under setting [2], `N=C(N)c1ccc(OCCCCCOc2ccc(C(=N)N)cc2)cc1` [Pentamidine isethionate] returned a ThS net change of 479.

With `Cc1cc(CC(=O)[O-])n(C)c1C(=O)c1ccc(Cl)cc1.[Na+]` [Zomepirac sodium salt], the ThS net change under setting [3] was 356.

`NC(=O)c1cc[n+](CC2=C(C(=O)O)N3C(=O)[C@@H](NC(=O)[C@@H](c4ccccc4)S(=O)(=O)[O-])[C@H]3SC2)cc1` [Cefsulodin sodium salt] yielded a ThS net change under setting [1] of 388.

Under setting [3], `CC(C)[N+](C)(CCOC(=O)C1c2ccccc2Oc2ccccc21)C(C)C` [Propantheline bromide] displayed a ThS net change of 373.

`C=C1/C(=C\C=C2/CCC[C@]3(C)[C@@H]([C@H](C)CCCC(C)C)CC[C@@H]23)C[C@@H](O)C[C@@H]1O` [Alfacalcidol] came in with a ThS net change under setting [5] of 284.

Compound `C=CC[C@]1(O)CC[C@H]2[C@@H]3CCC4=CC(=O)CCC4=C3C=C[C@@]21C` [Altrenogest] showed a ThS net change of 432.

Under setting [2], `Cc1[nH]c(=O)c(C#N)cc1-c1ccncc1` [Milrinone] had a ThS net change of 423.

The compound `Clc1ccc(COC(Cn2ccnc2)c2ccc(Cl)cc2Cl)cc1` (centres unmarked) [Econazole nitrate] had a ThS net change of 309.

Take `CCCCCN(C)CCC(O)(P(=O)([O-])O)P(=O)(O)O.[Na+]` [Ibandronate sodium]: the ThS net change under setting [4] worked out at 394.

On to `COCC(=O)Nc1c(I)c(C(=O)NCC(O)CO)c(I)c(C(=O)N(C)CC(O)CO)c1I` (centres unmarked) [Iopromide], for which, under setting [3], the ThS net change is recorded as 359.

On to `Cc1cc(C)nc([N-]S(=O)(=O)c2ccc(N)cc2)n1.[Na+]` [Sulfamethazine sodium salt], for which the ThS net change under setting [6] came out at 366.

For the compound `CN1CCCN=C1/C=C/c1cccs1.O=C(O)C(O)C(O)C(=O)O` [Pyrantel tartrate], under setting [5], the ThS net change was 312.

Compound `c1ccc2c(CC3=NCCN3)cccc2c1` [Naphazoline hydrochloride] came in with a ThS net change under setting [3] of 361.

For `O=C(Nc1ccccc1)OCC(CN1CCCCC1)OC(=O)Nc1ccccc1` (centres unmarked) [Diperodon hydrochloride], the ThS net change under setting [3] was found to be 347.

The compound `COc1ccc2[nH]cc(CCNC(C)=O)c2c1` [Melatonin] showed a ThS net change under setting [3] of 356.

For the compound `CCN(CCCCOC(=O)c1ccc(OC)c(OC)c1)C(C)Cc1ccc(OC)cc1` (centres unmarked) [Mebeverine hydrochloride], under setting [5], the ThS net change is recorded as 295.

Take `CCN(CC)CCCC(C)Nc1ccnc2cc(Cl)ccc12` (centres unmarked) [Chloroquine diphosphate]: the ThS net change under setting [6] is recorded as 338.

Turning to `CO/N=C(\C(=O)N[C@@H]1C(=O)N2C(C(=O)O)=C(C[N+]3(C)CCCC3)CS[C@H]12)c1csc(N)n1` [Cefepime hydrochloride], the ThS net change under setting [2] is 418.

Take `CN1CC2c3ccccc3Oc3ccc(Cl)cc3C2C1` (centres unmarked) [Asenapine maleate]: the ThS net change under setting [6] came out at 375.

As for `CC(=O)Oc1ccccc1C(=O)Nc1ncc([N+](=O)[O-])s1` [Nitazoxanide], the ThS net change under setting [5] is recorded as 198.

Regarding `CCN(CC)C(=O)c1ccc(O)c(OC)c1` [Ethamivan], under setting [1], the ThS net change amounted to 386.

Compound `Clc1ccccc1C(c1ccccc1)(c1ccccc1)n1ccnc1` [Clotrimazole] gave a ThS net change under setting [1] of 396.

`C[C@@H]1C[C@H]2[C@@H]3C[C@H](F)C4=CC(=O)C=C[C@]4(C)[C@@]3(Cl)[C@@H](O)C[C@]2(C)[C@H]1C(=O)COC(=O)C(C)(C)C` [Clocortolone pivalate] displayed a ThS net change under setting [2] of 414.

In the case of `COc1ccccc1N1CCN(CCCCNC(=O)c2ccc3ccccc3c2)CC1.Cl.Cl` [DO 897/99], the ThS net change under setting [3] is on record as 374.

Compound `COc1ccc(-c2ccc3cc(C(=O)O)ccc3c2)cc1C12CC3CC(CC(C3)C1)C2` [Adapalene] gave a ThS net change under setting [2] of 477.

As for `CC1=C(CC(=O)O)c2cc(F)ccc2/C1=C\c1ccc([S+](C)[O-])cc1` (centres unmarked) [Sulindac], the ThS net change under setting [5] was determined as 288.

The compound `NS(=O)(=O)c1cc(C(=O)O)c(NCc2ccco2)cc1Cl` [Furosemide] came in with a ThS net change under setting [3] of 360.

`CC1(C)[C@H](C(=O)O)N2C(=O)C[C@H]2S1(=O)=O` [Sulbactam]: the ThS net change came to 463.

Turning to `CC1(C)OC(=O)NC1=O` [Dimethadione], the ThS net change under setting [1] is given as 381.

In turn, `CC(C)CC(N(C)C)C1(c2ccc(Cl)cc2)CCC1.Cl` (centres unmarked) [Sibutramine HCl] gave a ThS net change under setting [6] of 347.

Regarding `C[C@]12CCC(=O)C=C1C=C[C@@H]1[C@@H]2CC[C@@]2(C)[C@H]1CC[C@@]2(O)CCC(=O)[O-].[K+]` [Canrenoic acid potassium salt], the ThS net change under setting [6] is 329.

In the case of `COc1cc(C(=O)NC2CCCNC2)cc(OC)c1OC` (centres unmarked) [Troxipide], the ThS net change under setting [1] came to 407.

The compound `CC(=O)N(O)CCCCCNC(=O)CCC(=O)N(O)CCCCCNC(=O)CCC(=O)N(O)CCCCCN` [Deferoxamine mesylate] had a ThS net change of 439.

The compound `CCOC(=O)c1ccc(N)cc1` [Benzocaine] showed a ThS net change under setting [1] of 379.

Consider `OCCOCCN1CCN(C(c2ccccc2)c2ccc(Cl)cc2)CC1` (centres unmarked) [Hydroxyzine dihydrochloride], for which the ThS net change under setting [5] is given as 309.

With `Cc1cc2c(cc1S(N)(=O)=O)S(=O)(=O)CCC2` [Meticrane], under setting [3], the ThS net change is recorded as 368.

Regarding `CC(CCc1ccccc1)NCC(O)c1ccc(O)c(C(N)=O)c1` (centres unmarked) [Labetalol hydrochloride], the ThS net change under setting [3] is 353.

In turn, `COCCOC(=O)C1=C(C)NC(C)=C(C(=O)OC/C=C/c2ccccc2)C1c1cccc([N+](=O)[O-])c1` (centres unmarked) [Cilnidipine] had a ThS net change under setting [5] of 230.

In the case of `CCN(CC)C(=O)[C@]1(c2ccccc2)C[C@@H]1CN.Cl` [Milnacipran hydrochloride], the ThS net change was 415.

In turn, `O=C(OCCOCCO)c1ccccc1Nc1cccc(C(F)(F)F)c1` [Etofenamate] returned a ThS net change under setting [2] of 425.

Under setting [2], `C[C@@H]1CN([C@H]2CC[C@](C#N)(c3ccc(F)cc3)CC2)CC[C@]1(C(=O)O)c1ccccc1` [Levocabastine hydrochloride] came in with a ThS net change of 416.

Under setting [4], `CC(Cc1ccccc1)NCCC(c1ccccc1)c1ccccc1` (centres unmarked) [Prenylamine lactate] gave a ThS net change of 401.

`CC(C)n1c(/C=C/C(O)CC(O)CC(=O)O)c(-c2ccc(F)cc2)c2ccccc21` (centres unmarked) [Fluvastatin sodium salt] returned a ThS net change under setting [2] of 473.

The compound `CC[C@H]1OC(=O)[C@H](C)[C@@H](O[C@H]2C[C@@](C)(OC)[C@@H](O)[C@H](C)O2)[C@H](C)[C@@H](O[C@@H]2O[C@H](C)C[C@H](N(C)C)[C@H]2O)[C@](C)(O)C[C@@H](C)C(=O)[C@H](C)[C@@H](O)[C@]1(C)O` [Erythromycin] showed a ThS net change under setting [5] of 314.

Under setting [1], `CC1CCc2c(N3CCC(O)CC3)c(F)cc3c(=O)c(C(=O)O)cn1c23` (centres unmarked) [Nadifloxacin] gave a ThS net change of 399.

Under setting [2], `CNc1ncnc2c1ncn2[C@@H]1O[C@H](CO)[C@@H](O)[C@H]1O` [N6-methyladenosine] had a ThS net change of 416.

As to `Cc1c(NC(C)C)c(=O)n(-c2ccccc2)n1C.Cl` [Isopyrin hydrochloride], under setting [1], the ThS net change is on record as 380.

`NC1CONC1=O` (stereo in doubt) [(S)-(-)-Cycloserine] showed a ThS net change under setting [1] of 391.

Compound `CC(C)(C)NC(=O)[C@@H]1C[C@@H]2CCCC[C@@H]2CN1C[C@@H](O)[C@H](Cc1ccccc1)NC(=O)[C@H](CC(N)=O)NC(=O)c1ccc2ccccc2n1` [Saquinavir mesylate] had a ThS net change under setting [2] of 568.

Take `CCOC(=O)[C@@](C)(N)Cc1ccc(O)c(O)c1` [Methyldopate hydrochloride]: the ThS net change under setting [1] was determined as 385.

Under setting [3], `CN1CCN(C2=Nc3ccccc3Oc3ccc(Cl)cc32)CC1` [Loxapine succinate] displayed a ThS net change of 358.
